Experimental data: patent publication US10294243B2, “Bicyclic compounds as pesticides” (BAYER CROPSCIENCE AKTIENGESELLSCHAFT, priority 2014, dated 2019)
Read-outs that look alike come from different tables or passages of the source.

How the values were obtained:
[1] = tested on: Myzus persicae; assay: Myzus persicae - spray test (bell pepper plants); type: in vivo; conditions: application rate 4 ppm, after 6 days
Description: Myzus persicae—Spray Test Solvent: 7 parts by weight of dimethylformamide Emulsifier: alkylaryl polyglycol ether […] […] If the addition of ammonium salts or/and penetrants is required, these are each added in a concentration of 1000 ppm to the preparation solution. Bell pepper plants (Capsicum annuum) severely infested with the green peach aphid (Myzus persicae) are treated by spraying with the active compound preparation in the desired concentration.

[2] = log P by HPLC on reversed-phase C18 columns (OECD Guideline 117); method [a] acidic pH 2.7, method [b] neutral pH 7.8; type: physicochemical; conditions: for chromatographic logP: reversed-phase C18 HPLC column
[3] = tested on: Tetranychus urticae; assay: Tetranychus urticae - spray test, OP-resistant; type: in vivo; conditions: application rate 500 g/ha, bean leaf discs, after 6 days
Description: Tetranychus urticae—Spray Test, OP-Resistant
(§1) Emulsifier: alkylaryl polyglycol ether
After 6 days, the efficacy in % is determined. 100% means that all the spider mites have been killed; 0% means that none of the spider mites have been killed.

[4] = tested on: Spodoptera frugiperda; conditions: application rate 500 g/ha, maize leaf discs, after 7 days
Description: Spodoptera frugiperda—Spray Test
Solvent: 78.0 parts by weight of acetone • • 1.5 parts by weight of dimethylformamide
as §1
(§2) To produce further test concentrations, the preparation is diluted with emulsifier-containing water.
After 7 days, the efficacy in % is determined 100% means that all the caterpillars have been killed; 0% means that no caterpillars have been killed.

[5] = tested on: Phaedon cochleariae; assay: Phaedon cochleariae - spray test; type: in vivo; conditions: application rate 500 g/ha, Chinese cabbage leaf discs, after 7 days
Description: Phaedon cochleariae—Spray Test
as §1

[6] = tested on: Myzus persicae; assay: Myzus persicae - spray test (Chinese cabbage leaf discs); type: in vivo; conditions: application rate 500 g/ha, after 6 days; for pest or weed control at 500 g/ha: Myzus persicae, foliar, 144 h, read-out: efficacy (aphids killed)
Description: Myzus persicae—Spray Test
Solvent: 78 parts by weight of acetone • • 1.5 parts by weight of dimethylformamide
as §1, §2
After 6 days, the efficacy in % is determined 100% means that all the aphids have been killed; 0% means that none of the aphids have been killed.

[7] = tested on: Boophilus microplus; assay: Boophilus microplus - injection test; type: in vivo; conditions: application rate 20 μg/animal, injection into engorged adult female cattle ticks, assessed after 7 days
Description: Boophilus microplus—Injection Test
Solvent: dimethyl sulphoxide
To produce a suitable preparation of active compound, 10 mg of active compound are mixed with 0.5 ml of solvent and the concentrate is diluted with solvent to the desired concentration.
1 μl of the active compound solution is injected into the abdomen of 5 engorged adult female cattle ticks (Boophilus microplus). The animals are transferred into dishes and kept in a climate-controlled room.
Efficacy is assessed after 7 days by laying of fertile eggs. Eggs which are not visibly fertile are stored in a climate-controlled cabinet until the larvae hatch after about 42 days. An efficacy of 100% means that none of the ticks has laid any fertile eggs; 0% means that all the eggs are fertile.

[8] = tested on: Meloidogyne incognita; assay: Meloidogyne incognita test; type: in vivo; conditions: application rate 20 ppm, lettuce, after 14 days
Description: Meloidogyne Incognita Test
Solvent: 125.0 parts by weight of acetone
Vessels are filled with sand, active compound solution, an egg/larvae suspension of the southern root-knot nematode (Meloidogyne incognita) and lettuce seeds. The lettuce seeds germinate and the plants develop. The galls develop on the roots.
After 14 days, the nematicidal efficacy in % is determined by the formation of galls. 100% means that no galls were found; 0% means that the number of galls on the treated plants corresponds to the untreated control.

[9] = HPLC reversed-phase C18, method [a] acidic pH 2.7, read-out: logP[a]
[10] = HPLC reversed-phase C18, method [b] neutral pH 7.8, read-out: logP[b]
[11] = HPLC reversed-phase C18, method [a] acidic pH 2.7
[12] = HPLC reversed-phase C18, method [b] neutral pH 7.8

| SMILES | chromatographic logP [2, 9] | chromatographic logP [2, 10] | logP[a] [2, 11] | logP[b] [2, 12] | pest or weed control at 500 g/ha [6] | further results |
| --- | --- | --- | --- | --- | --- | --- |
| COc1cccc(-n2cnc3nc(-c4cccnc4)sc3c2=O)c1 [Compound 10, 6-(3-Methoxyphenyl)-2-(pyridin-3-yl)[1,3]thiazolo[4,5-d]pyrimidin-7(6H)-one] | 1.73 | 1.76 |  |  |  | efficacy (kill of aphids) [1]: 96% |
| Cc1ccc(-n2cnc3nc(-c4cccnc4)sc3c2=O)cc1 [Compound 11] |  |  | 1.92 | 1.96 |  | efficacy (spider mites killed) [3]: 90%; efficacy (caterpillars killed) [4]: 100%; efficacy (beetle larvae killed) [5]: 100% |
| Cn1ccc(Cn2cnc3nc(-c4cccnc4)sc3c2=O)n1 [Compound 37] |  |  | 0.97 | 1.08 |  | efficacy (caterpillars killed) [4]: 100%; efficacy (beetle larvae killed) [5]: 100%; efficacy (aphids killed) [6]: 90% |
| O=c1c2sc(-c3cccnc3)nc2ncn1-c1cc(SCC2CC2)ccc1F [Compound 44] |  |  | 2.91 | 3.00 |  | efficacy (kill of aphids) [1]: 100% |
| Cc1cc(F)c(-n2c(C)nc3nc(-c4cccnc4)sc3c2=O)cc1[S+]([O-])CC(F)(F)F (centres unmarked) [Compound 57, 6-{2-Fluoro-4-methyl-5-[(2,2,2-trifluoroethyl)sulphinyl]phenyl}-5-methyl-2-(pyridin-3-yl)[1,3]thiazolo[4,5-d]pyrimidin-7(6H)-one] | 2.25 | 2.05 |  |  | 100% | efficacy (spider mites killed) [3]: 90%; efficacy (laying of fertile eggs) [7]: 100% |
| O=c1c2sc(-c3cccnc3)nc2ncn1-c1ccc(SC(F)(F)F)cc1 [Compound 62, 2-(Pyridin-3-yl)-6-{4-[(trifluoromethyl)sulphanyl]phenyl}[1,3]thiazolo[4,5-d]pyrimidin-7(6H)-one] | 2.71 | 2.69 |  |  | 90% | efficacy (beetle larvae killed) [5]: 100% |
| O=c1c2sc(-c3cccnc3)nc2ncn1-c1ccc([S+]([O-])C(F)(F)F)cc1 (centres unmarked) [Compound 63, 2-(Pyridin-3-yl)-6-{4-[(trifluoromethyl)sulphinyl]phenyl}[1,3]thiazolo[4,5-d]pyrimidin-7(6H)-one] | 2.03 | 1.99 |  |  | 90% | nematicidal efficacy (formation of galls) [8]: 90% |
| Cc1cc(C)c([S+]([O-])CC(F)(F)F)cc1-n1cnc2nc(-c3cncc(F)c3)sc2c1=O (centres unmarked) [Compound 72] |  |  | 2.35 | 2.29 |  | efficacy (aphids killed) [6]: 90% |
| Cc1cc(F)c(-n2cnc3nc(-c4cncc(F)c4)sc3c2=O)cc1SCC(F)(F)F [Compound 73, 6-{2-Fluoro-4-methyl-5-[(2,2,2-trifluoroethyl)sulphanyl]phenyl}-2-(5-fluoropyridin-3-yl)[1,3]thiazolo[4,5-d]pyrimidin-7(6H)-one] | 3.36 | 3.25 |  |  | 90% |  |
| Cc1cc(F)c(-n2cnc3nc(-c4cncc(F)c4)sc3c2=O)cc1[S+]([O-])CC(F)(F)F (centres unmarked) [Compound 74, 6-{2-Fluoro-4-methyl-5-[(2,2,2-trifluoroethyl)sulphinyl]phenyl}-2-(5-fluoropyridin-3-yl)[1,3]thiazolo[4,5-d]pyrimidin-7(6H)-one] | 2.34 | 2.26 |  |  | 90% |  |
| Cc1cc(C)c(-n2cnc3nc(-c4cncnc4)sc3c2=O)cc1SCC(F)(F)F [Compound 76, 6-{2,4-Dimethyl-5-[(2,2,2-trifluoroethyl)sulphanyl]phenyl}-2-(pyrimidin-5-yl)[1,3]thiazolo[4,5-d]pyrimidin-7(6H)-one] | 2.88 | 2.77 |  |  | 90% |  |
| Cc1cc(C)c([S+]([O-])CC(F)(F)F)cc1-n1cnc2nc(-c3cncnc3)sc2c1=O (centres unmarked) [Compound 77, 6-{2,4-Dimethyl-5-[(2,2,2-trifluoroethyl)sulphinyl]phenyl}-2-(pyrimidin-5-yl)[1,3]thiazolo[4,5-d]pyrimidin-7(6H)-one] | 1.84 | 1.82 |  |  | 100% |  |
| Cc1cc(F)c(-n2cnc3nc(-c4cncnc4)sc3c2=O)cc1SCC(F)(F)F [Compound 78] |  |  | 2.73 | 2.65 |  | efficacy (aphids killed) [6]: 90% |
| CC(c1ncnn1C)n1cnc2nc(-c3cccnc3)sc2c1=O (centres unmarked) [Compound 86] |  |  | 1.01 | 1.07 |  | efficacy (aphids killed) [6]: 90% |
